Measurements published in ChEMBL document CHEMBL1770127, “2-(2-Aminothiazol-4-yl)pyrrolidine-based tartrate diamides as potent, selective and orally bioavailable TACE inhibitors” (Bioorg Med Chem Lett, 2011).

Tests used:
[1] = biological target: T1, Disintegrin and metalloproteinase domain-containing protein 17 (Homo sapiens, UniProt P78536); test: Inhibition of TACE
[2] = AUC in Sprague-Dawley rat at 10 mg/kg, po measured within 6 hrs after post-dosing by LC/MS/MS analysis; format: ADME, organism-based; set-up: time < 6 hr, dose 10 mg/kg, route oral; details: plasma
[3] = Plasma concentration in Sprague-Dawley rat at 10 mg/kg, po measured after 6 hrs by LC/MS/MS analysis; format: ADME, organism-based; set-up: dose 10 mg/kg, route oral
[4] = biological target: T1, Disintegrin and metalloproteinase domain-containing protein 17; test: Inhibition of TACE by cell based assay
Interstitial collagenase = biological target: T2, Interstitial collagenase (Homo sapiens, UniProt P03956); test: Inhibition of MMP1
T2 sequence (P03956 whole entry): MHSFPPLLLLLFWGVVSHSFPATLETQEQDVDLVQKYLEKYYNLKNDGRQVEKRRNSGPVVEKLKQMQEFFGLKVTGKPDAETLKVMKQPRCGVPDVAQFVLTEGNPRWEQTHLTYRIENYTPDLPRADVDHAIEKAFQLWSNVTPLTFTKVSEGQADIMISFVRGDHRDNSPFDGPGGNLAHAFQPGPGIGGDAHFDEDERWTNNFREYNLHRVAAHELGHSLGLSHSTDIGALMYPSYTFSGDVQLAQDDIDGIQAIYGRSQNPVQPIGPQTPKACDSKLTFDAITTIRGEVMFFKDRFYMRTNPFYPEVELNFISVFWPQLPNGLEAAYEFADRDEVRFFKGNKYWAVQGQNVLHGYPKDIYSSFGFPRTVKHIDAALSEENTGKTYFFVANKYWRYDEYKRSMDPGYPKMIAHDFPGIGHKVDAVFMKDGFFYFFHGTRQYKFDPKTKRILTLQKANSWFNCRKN

[5] = biological target: 72 kDa type IV collagenase (Homo sapiens, UniProt P08253); test: Inhibition of MMP2
Stromelysin-1 = Stromelysin-1 (Homo sapiens, UniProt P08254); test: Inhibition of MMP3
Matrilysin = biological target: T3, Matrilysin (Homo sapiens, UniProt P09237); test: Inhibition of MMP7
T3 sequence (P09237 whole entry): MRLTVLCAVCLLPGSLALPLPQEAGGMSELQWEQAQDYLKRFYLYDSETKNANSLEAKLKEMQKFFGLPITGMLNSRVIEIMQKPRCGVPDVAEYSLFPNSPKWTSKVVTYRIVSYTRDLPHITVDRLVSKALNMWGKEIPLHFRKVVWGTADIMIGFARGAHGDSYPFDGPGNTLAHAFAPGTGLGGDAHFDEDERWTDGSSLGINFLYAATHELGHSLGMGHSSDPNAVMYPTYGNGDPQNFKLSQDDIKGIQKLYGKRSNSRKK

[6] = biological target: Matrix metalloproteinase-9 (Homo sapiens, UniProt P14780); test: Inhibition of MMP9
Collagenase 3 = Collagenase 3 (Homo sapiens, UniProt P45452); test: Inhibition of MMP13
[7] = biological target: Matrix metalloproteinase-14 (Homo sapiens, UniProt P50281); test: Inhibition of MMP14
[8] = biological target: T4, Disintegrin and metalloproteinase domain-containing protein 10 (Homo sapiens, UniProt O14672); test: Inhibition of ADAM10
T4 sequence (O14672 whole entry): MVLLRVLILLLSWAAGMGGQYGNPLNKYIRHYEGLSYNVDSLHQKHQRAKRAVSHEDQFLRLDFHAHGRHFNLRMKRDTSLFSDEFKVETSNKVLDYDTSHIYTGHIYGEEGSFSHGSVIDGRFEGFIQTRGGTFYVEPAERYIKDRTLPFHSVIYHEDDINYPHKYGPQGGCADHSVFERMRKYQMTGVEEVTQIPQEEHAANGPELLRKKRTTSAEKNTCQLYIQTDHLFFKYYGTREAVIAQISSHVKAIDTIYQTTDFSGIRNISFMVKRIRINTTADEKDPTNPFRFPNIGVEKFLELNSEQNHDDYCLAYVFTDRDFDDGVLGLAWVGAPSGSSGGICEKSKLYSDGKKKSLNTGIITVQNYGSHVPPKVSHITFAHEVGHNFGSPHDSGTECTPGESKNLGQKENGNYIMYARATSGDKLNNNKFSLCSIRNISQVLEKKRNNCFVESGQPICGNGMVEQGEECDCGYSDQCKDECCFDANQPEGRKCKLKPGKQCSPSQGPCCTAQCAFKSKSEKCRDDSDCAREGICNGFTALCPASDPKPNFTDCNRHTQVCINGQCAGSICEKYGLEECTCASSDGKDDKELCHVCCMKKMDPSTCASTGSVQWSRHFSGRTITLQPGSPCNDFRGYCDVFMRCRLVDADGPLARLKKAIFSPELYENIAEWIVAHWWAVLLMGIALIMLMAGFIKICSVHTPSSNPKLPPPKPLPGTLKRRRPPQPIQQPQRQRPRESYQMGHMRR

T1 sequence (P78536 whole entry, the tested form may be a part): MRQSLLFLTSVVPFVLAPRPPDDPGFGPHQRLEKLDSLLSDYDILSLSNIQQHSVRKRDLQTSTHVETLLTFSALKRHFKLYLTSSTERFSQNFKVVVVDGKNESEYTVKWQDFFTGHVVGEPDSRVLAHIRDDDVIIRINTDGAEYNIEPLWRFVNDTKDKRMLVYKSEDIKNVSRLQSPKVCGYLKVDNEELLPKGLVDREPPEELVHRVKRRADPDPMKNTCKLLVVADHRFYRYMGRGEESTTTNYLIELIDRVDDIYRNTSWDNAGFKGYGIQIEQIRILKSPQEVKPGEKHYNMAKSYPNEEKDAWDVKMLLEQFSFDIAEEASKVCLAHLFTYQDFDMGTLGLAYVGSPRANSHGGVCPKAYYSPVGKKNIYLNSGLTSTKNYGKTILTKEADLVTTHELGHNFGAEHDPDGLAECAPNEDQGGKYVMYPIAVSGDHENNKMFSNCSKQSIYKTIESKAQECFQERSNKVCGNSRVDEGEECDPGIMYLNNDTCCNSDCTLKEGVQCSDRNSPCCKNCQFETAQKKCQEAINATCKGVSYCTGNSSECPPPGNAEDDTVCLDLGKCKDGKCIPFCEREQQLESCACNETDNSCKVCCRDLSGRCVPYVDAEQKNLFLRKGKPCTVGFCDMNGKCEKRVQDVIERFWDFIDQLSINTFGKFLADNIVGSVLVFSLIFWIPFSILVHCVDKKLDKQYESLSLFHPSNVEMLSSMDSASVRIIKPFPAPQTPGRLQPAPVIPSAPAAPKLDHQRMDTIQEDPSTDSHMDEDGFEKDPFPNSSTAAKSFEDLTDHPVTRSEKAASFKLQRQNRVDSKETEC
72 kDa type IV collagenase, sequence (P08253 whole entry): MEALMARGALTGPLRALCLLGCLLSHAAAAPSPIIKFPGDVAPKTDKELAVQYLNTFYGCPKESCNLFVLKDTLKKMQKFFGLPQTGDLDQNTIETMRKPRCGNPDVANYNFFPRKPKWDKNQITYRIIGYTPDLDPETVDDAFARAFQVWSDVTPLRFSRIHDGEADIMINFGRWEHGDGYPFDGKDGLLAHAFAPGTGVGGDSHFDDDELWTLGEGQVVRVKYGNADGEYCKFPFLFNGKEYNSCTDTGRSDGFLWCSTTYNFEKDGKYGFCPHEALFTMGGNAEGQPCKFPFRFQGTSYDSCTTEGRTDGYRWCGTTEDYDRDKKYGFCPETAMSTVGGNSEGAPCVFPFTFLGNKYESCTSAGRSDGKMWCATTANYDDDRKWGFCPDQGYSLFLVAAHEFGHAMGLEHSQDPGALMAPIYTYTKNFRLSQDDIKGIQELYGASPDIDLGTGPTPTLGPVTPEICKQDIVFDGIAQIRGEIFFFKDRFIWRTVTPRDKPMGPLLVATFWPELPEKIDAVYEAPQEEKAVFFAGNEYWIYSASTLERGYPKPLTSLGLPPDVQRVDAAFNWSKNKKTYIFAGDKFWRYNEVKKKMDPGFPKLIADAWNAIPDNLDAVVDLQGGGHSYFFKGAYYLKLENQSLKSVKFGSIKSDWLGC
Matrix metalloproteinase-9, sequence (P14780 whole entry): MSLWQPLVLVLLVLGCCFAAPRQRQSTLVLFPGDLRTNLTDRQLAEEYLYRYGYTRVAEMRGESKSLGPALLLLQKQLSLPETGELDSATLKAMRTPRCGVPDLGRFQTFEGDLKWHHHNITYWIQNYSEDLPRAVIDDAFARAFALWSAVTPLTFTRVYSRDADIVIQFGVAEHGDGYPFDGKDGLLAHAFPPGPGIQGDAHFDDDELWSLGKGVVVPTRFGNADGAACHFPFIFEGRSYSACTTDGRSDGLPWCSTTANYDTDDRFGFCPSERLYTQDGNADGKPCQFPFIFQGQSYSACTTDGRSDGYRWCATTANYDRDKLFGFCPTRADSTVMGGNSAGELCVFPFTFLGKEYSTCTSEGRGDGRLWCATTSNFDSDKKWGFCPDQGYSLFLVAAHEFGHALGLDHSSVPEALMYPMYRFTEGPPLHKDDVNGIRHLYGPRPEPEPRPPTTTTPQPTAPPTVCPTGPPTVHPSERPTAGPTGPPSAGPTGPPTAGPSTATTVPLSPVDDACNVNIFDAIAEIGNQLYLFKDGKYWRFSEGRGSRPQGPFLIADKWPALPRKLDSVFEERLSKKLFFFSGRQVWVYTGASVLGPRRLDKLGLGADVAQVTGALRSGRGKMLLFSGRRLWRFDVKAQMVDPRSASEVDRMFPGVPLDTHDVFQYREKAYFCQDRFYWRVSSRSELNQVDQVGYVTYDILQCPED
Stromelysin-1, sequence (P08254 whole entry): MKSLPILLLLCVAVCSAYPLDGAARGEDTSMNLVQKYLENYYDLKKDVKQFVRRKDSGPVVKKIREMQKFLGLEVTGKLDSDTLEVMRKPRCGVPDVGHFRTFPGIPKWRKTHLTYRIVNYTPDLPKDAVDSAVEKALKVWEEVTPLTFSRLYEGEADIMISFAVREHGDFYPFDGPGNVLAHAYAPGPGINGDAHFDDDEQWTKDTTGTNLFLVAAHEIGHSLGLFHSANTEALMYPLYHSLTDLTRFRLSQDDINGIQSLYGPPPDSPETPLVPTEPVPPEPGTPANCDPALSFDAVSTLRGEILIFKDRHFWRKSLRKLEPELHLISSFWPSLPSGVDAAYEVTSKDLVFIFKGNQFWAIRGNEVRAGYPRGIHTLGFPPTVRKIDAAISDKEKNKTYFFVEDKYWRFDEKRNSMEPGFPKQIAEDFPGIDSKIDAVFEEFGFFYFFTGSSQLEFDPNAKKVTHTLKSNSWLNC

Ki [1] [µM] | AUC at 6 h [2] [µM·h] | concentration at 6 h [3] [µM] | IC50 [4] [µM] | Ki (Interstitial collagenase) [µM] | Ki [5] [µM] | Ki (Stromelysin-1) [µM] | Ki (Matrilysin) [µM] | Ki [6] [µM] | Ki (Collagenase 3) [µM] | Ki [7] [µM] | Ki [8] [µM] | SMILES
0.005 | 134 | 17.6 | 3.02 | > 40 | 20.5 | > 40 | 18.1 | > 40 | > 40 | > 40 | 1.35 | C[C@@H](NC(=O)[C@H](O)[C@@H](O)C(=O)N1CCC[C@@H]1c1csc(NC2CC2)n1)c1ccc(-n2cccn2)cc1
0.001 | 1.13 | – | 0.416 | > 40 | > 40 | > 40 | 13.5 | 10.1 | 14.1 | 16.4 | 0.12 | CNc1nc([C@H]2c3ccccc3CN2C(=O)[C@H](O)[C@@H](O)C(=O)N[C@H](C)c2ccc(-n3cccn3)cc2)cs1
